# Reference: US5846942A, “Cholecystokinin antagonists, their preparation and therapeutic use” (Warner-Lambert Company, priority 1996, dated 1998)
# Molecular target: T1, Central CCK Receptors (Mus musculus, UniProt P56481)
# T1 construct: from tissue; host or cells: cerebral cortex membranes of male CFLP mice (30-40 g)
# T1 sequence (P56481 1-453): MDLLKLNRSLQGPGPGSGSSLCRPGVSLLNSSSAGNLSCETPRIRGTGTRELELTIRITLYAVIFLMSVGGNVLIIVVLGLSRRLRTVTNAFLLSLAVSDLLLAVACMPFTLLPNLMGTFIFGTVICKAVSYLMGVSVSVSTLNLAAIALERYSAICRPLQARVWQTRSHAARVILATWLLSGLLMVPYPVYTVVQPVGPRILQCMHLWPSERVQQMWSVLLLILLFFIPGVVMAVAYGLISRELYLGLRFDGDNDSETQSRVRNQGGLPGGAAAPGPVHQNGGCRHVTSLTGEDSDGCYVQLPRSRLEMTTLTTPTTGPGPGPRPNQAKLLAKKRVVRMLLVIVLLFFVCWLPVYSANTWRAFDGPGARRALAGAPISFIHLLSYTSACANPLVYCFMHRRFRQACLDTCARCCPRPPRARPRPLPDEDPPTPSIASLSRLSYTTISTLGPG
# Assay: Binding to central CCK receptors, displacement of tritiated pentagastrin from cerebral cortical membranes of male CFLP mice
# Set-up: species or system mouse (male CFLP)
# Conditions: cerebral cortexes taken from male CFLP mice; 2 nM tritiated-pentagastrin
# Description: The biological activity of compounds of the present invention was evaluated employing an initial screening test which rapidly and accurately measured the binding of the tested compound to known CCK receptor sites. […] (See Hays et al, Neuropeptides 1:53-62, 1980; and Satuer et al, Science 208:1155-1156, 1980).
# In this screening test, the cerebral cortices taken from male CFLP mice weighing between 30-40 g were dissected on ice, weighed, and homogenized in 10 volumes of 50 mM Tris-HCl buffer (pH 7.4 at 0°-4° C.). The resulting suspension was centrifuged, the supernate was discarded, and the pellet was washed by resuspension in Tris-HCl buffer followed by recentrifugation. The final pellet was resuspended in 20 volumes of […] Hepes buffer (pH 7.2 at 23° C.) containing 130 mM NaCl, […] KCl, […] MgCl2, […] EDTA, 5 mg/mL bovine albumin, and bacitracin (0.25 mg/mL).
# In saturation studies, cerebral cortical membranes were incubated at 23° C. for 120 minutes in a final volume of 500 μL of Hepes incubation buffer (pH 7.2) together with […] tritiated-pentagastrin (Amersham International, England).
# In the displacement experiments, membranes were incubated with a single concentration (2 nM) of ligand, together with increasing concentrations (10^-11 to […]) of competitive test compound. In each case, the nonspecific binding was defined as that persisting in the presence of the unlabeled octapeptide CCK26-33 (10^-6 M)
# Following incubation, radioactivity bound to membranes was separated from that free in solution by rapid filtration through Whatman GF/B filters and washed three times with 4 mL of ice cold Tris-HCl buffer. Filters from samples incubated with tritiated-pentagastrin were placed in polyethylene vials with 4 mL of scintillation cocktail, and the radioactivity was estimated by liquid scintillation spectrometry (efficiency 47-52%).
# Saturation curves for specific tritiated- pentagastrin binding to mouse cortical membranes were analyzed by the methods of Scatchard (Ann. New York Acad. Sci. 51:660-672, 1949, and Hill (J. Physiol. 40:IV-VIII, 1910), to provide estimates for the maximum number of binding sites (Bmax) and the equilibrium dissociation constant (Ka).
# In displacement experiments, inhibition curves were analyzed by either logit-log plots or the iterative curve fitting computer program ALLFIT (DeLean, Munson and Redbard, 1978) to provide estimates of the IC50 and nH (apparent Hill coefficient) values).
# The inhibition constant (Ki) of the test compound was then calculated according to the Cheng-Prusoff equation: [formula] where [L] is the concentration of radiolabel and Ka is the equilibrium dissociation constant.
row,SMILES,Ki [µM]
1,"C[C@](Cc1c[nH]c2ccccc12)(NC(=O)OC1C2CC3CC(C2)CC1C3)C(=O)NC1CCCCC1C(=O)O (stereo partly drawn) [Example 115, [1S-[α(S*),2B]] and [1R-[α(R*),28β]]^sP 2-[[3-(1H-indol-3-yl)-2-methyl-1-oxo-2-[(tricyclo[3.3.1.1^3,7]dec-2-yloxy)carbonyl]amino]propyl]amino]cyclhexanecarboxylic acid]",0.001
2,O=C(N[C@H](CN[C@H](CO)Cc1ccccc1)Cc1c[nH]c2ccccc12)OC1C2CC3CC(C2)CC1C3 (some centres unmarked) [Example 2],1.12
3,"C[C@](CN[C@H](CO)Cc1ccccc1)(Cc1c[nH]c2ccccc12)NC(=O)OC1C2CC3CC(C2)CC1C3 (stereo partly drawn) [Example 6, Tricyclo[3.3.1.1^3,7]dec-2-yl[R-(R*,S*)]-1-[[1(hydroxy-methyl)-2-phenylethyl]amino]-3-(1H-indol-3-yl)-2-methylprop-2-ylcarbamate]",0.2
4,"C[C@](CNC(=O)CCCc1ccccc1)(Cc1c[nH]c2ccccc12)NC(=O)OC1C2CC3CC(C2)CC1C3 (stereo partly drawn) [Example 19, Carbamic acid, [1-(1H-indol-3-ylmethyl)-1-methyl-2-[(1-oxo-4-phenylbutyl)amino]ethyl]-, tricyclo-[3.3.1.1^3,7]dec-2-yl ester (R)-]",0.353
5,C[C@](Cc1c[nH]c2ccccc12)(NC(=O)OC1C2CC3CC(C2)CC1C3)C(=O)NC1(CO)CCCCC1 (some centres unmarked) [Example 122],0.059
6,"CC(CNCC(O)c1ccccc1)(Cc1c[nH]c2ccccc12)NC(=O)OC1C2CC3CC(C2)CC1C3 (centres unmarked) [Example 5, Tricyclo[3.3.1.1^3,7]dec-2-yl [1-[(2-hydroxy-2-phenyl-ethyl)amino]-3-(1H-indol-3-yl)-2-methylprop-2-yl]-carbamate]",0.22
7,"C[C@](Cc1c[nH]c2ccccc12)(NC(=O)OC1C2CC3CC(C2)CC1C3)C(=O)NC1CC2CCC1C2 (some centres unmarked) [Example 118, Tricyclo[3.3.1.1^3,7]dec-2yl ester [2-(bicyclo[2.2.1]hept-2-ylamino)-1-(1H-indol-3-ylmethyl)-1-methyl-2-oxoethyl]carbamate]",0.053
8,"CC(=O)OC[C@H](Cc1ccccc1)NC[C@@](C)(Cc1c[nH]c2ccccc12)NC(=O)OC1C2CC3CC(C2)CC1C3 (relative stereo) [Example 7, [R-(R*,S*)]-β-[[2-(1H-indol-3-ylmethyl)-2-[[tricyclo-[3.3.1.1^3,7]dec-2-yloxvcarbonyl]amino]propyl]amino]-benzenepropanol acetate]",0.374
9,"C[C@](Cc1c[nH]c2ccccc12)(NC(=O)OC1C2CC3CC(C2)CC1C3)C(=O)NC1(CO)CCCC1 (stereo partly drawn) [Example 119, Tricyclo[3.3.1.1^3,7]dec-2-yl ester (R) [2-[[1-(hydroxymethyl)cyclopentyl]amino]-1-(1H-indol-3-ylmethyl)-1-methyl-2-oxoethyl]carbamate]",0.18
10,"C[C@](Cc1c[nH]c2ccccc12)(NC(=O)OC1C2CC3CC(C2)CC1C3)C(=O)NC1(C(=O)O)CCCCC1 (stereo partly drawn) [Example 120, (R)-1-[[2-(1H-indol-3-ylmethyl)-2-methyl-1-oxo-2-[[(tricyclo[3.3.1.1^3,7]dec-2-yloxy)carbonyl]amino]ethyl]amino]cyclohexanoic acid]",0.04
11,CNC(=O)C1CCCCC1NC(=O)[C@@](C)(Cc1c[nH]c2ccccc12)NC(=O)OC1C2CC3CC(C2)CC1C3 (some centres unmarked) [Example 123],0.017
12,"COC[C@@H]1CCCN1NC(=O)[C@@](C)(Cc1c[nH]c2ccccc12)NC(=O)OC1C2CC3CC(C2)CC1C3 (stereo partly drawn) [Example 112, Tricyclo[3.3.1.1^3.7]dec-2-yl ester [2S-(R*,S*)1 N-[1-(1H-indol-3-ylmethyl)-2-[[2-(methoxymethyl)-1-pyrrolidinyl]amino]-1-methyl-2-oxoethyl]carbamate]",0.073
13,"C[C@](Cc1c[nH]c2ccccc12)(NC(=O)OC1C2CC3CC(C2)CC1C3)C(=O)NC1CCCCC1C#N (some centres unmarked) [Example 116, Carbamic acid [2-[(2-cyanocyclohexyl)amino]-1-(1H-indol-3-ylmethyl)-1-methyl-2-oxoethyl]-1H-tricyclo-[3.3.1.1^3,7]dec-2-yl ester]",0.0035

# More lines, now with the values ahead:
row,Ki [µM],SMILES
1,0.808,C[C@](Cc1c[nH]c2ccccc12)(NC(=O)OC1C2CC3CC(C2)CC1C3)C(=S)NCCc1ccccc1 (some centres unmarked) [Example 9]
2,0.54,"C[C@@](Cc1c[nH]c2ccccc12)(NC(=O)OC1C2CC3CC(C2)CC1C3)C(=O)NCCC(=O)N[C@H](Cc1ccccc1)C(=O)O (stereo partly drawn) [Example 35, Benzenepropanoic acid, α-[[3-[[3-[(1H-indol-3-yl)-2-methyl-1-oxo-2-[[(tricyclo[3.3.1.1^3,7]dec-2-yloxy)-carbonyl]amino]propyl]amino]-1-oxopropyllamino-, [S-(R*,S*)]-]"
3,> 0.1,C[C@](CNC(=O)CCc1ccccc1)(Cc1c[nH]c2ccccc12)NC(=O)OC1C2CC3CC(C2)CC1C3 (some centres unmarked) [Example 21]
4,0.91,"C[C@@](Cc1c[nH]c2ccccc12)(NC(=O)OC1C2CC3CC(C2)CC1C3)C(=O)NCCC(=O)N[C@@H](Cc1ccccc1)C(N)=O (stereo partly drawn) [Example 27, L-Phenylalaninamide α-methyl-N-[(tricyclo[3.3.1.1^3,7]-dec-2-yloxy)carbonyl]-L-tryptophy-β-alanyl-]"
5,0.56,"C[C@@](Cc1c[nH]c2ccccc12)(NC(=O)OC1C2CC3CC(C2)CC1C3)C(=O)NCCC(=O)N[C@@H](Cc1ccccc1)C(=O)O (stereo partly drawn) [Example 34, L-Phenylalanine, N-[N-[α-methyl-N-[(tricyclo-[3.3.1.1^3,7]dec-2-yloxy)carbonyl]-L-tryptophyl]-β-alanyl]-]"
6,1.4,C[C@@](Cc1c[nH]c2ccccc12)(NC(=O)OC1C2CC3CC(C2)CC1C3)C(=O)NCCC(=O)N[C@H](Cc1ccccc1)C(N)=O (some centres unmarked) [Example 28]
7,0.093,CC(CNC(=O)OC1C2CC3CC(C2)CC1C3)(Cc1c[nH]c2ccccc12)C(=O)N[C@H](COC(=O)CCC(=O)O)Cc1ccccc1 (some centres unmarked) [Example 57]
8,0.092,"C[C@](Cc1c[nH]c2ccccc12)(NC(=O)OC1C2CC3CC(C2)CC1C3)C(=O)NCCC(=O)N[C@@H](Cc1ccccc1)C(N)=O (stereo partly drawn) [Example 26, L-Phenylalaninamide, α-methyl-N-[(tricyclo [3.3.1.1^3,7]-dec-2-yloxy)carbonyl]-D-tryptophvl-β-alanyl-]"
9,0.017,C[C@](CC(=O)OCc1ccccc1)(Cc1c[nH]c2ccccc12)NC(=O)OC1C2CC3CC(C2)CC1C3 (some centres unmarked) [Example 17]
10,0.55,"C[C@](Cc1c[nH]c2ccccc12)(NC(=O)OC1C2CC3CC(C2)CC1C3)C(=O)NCCC(=O)N[C@H](Cc1ccccc1)C(N)=O (stereo partly drawn) [Example 25, D-Phenylalanamide, α-methyl-N-[(tricyclo[3.3.1.1^3,7]-dec-2-yloxv)carbonyl]-D-tryotophyl-β-alanyl-]"
11,0.05,C[C@](Cc1c[nH]c2ccccc12)(NC(=O)OC1C2CC3CC(C2)CC1C3)C(=O)NCC(=O)OCc1ccccc1 (some centres unmarked) [Example 36]
12,0.24,"COC(=O)[C@@H](Cc1ccccc1)NC(=O)CCNC(=O)[C@@](C)(Cc1c[nH]c2ccccc12)NC(=O)OC1C2CC3CC(C2)CC1C3 (stereo partly drawn) [Example 29, 12-Oxa-2,5,9-triazatridecanoic acid, 3-(1H-indol-3-ylmethyl)-3-methyl-4.8.11-trioxo-10-(phenvlmethyl)-, tricyclo[3.3.1.1^3,7]dec-2-vl ester, [R-(R*,R*)]-]"
13,> 10,"C[C@](Cc1c[nH]c2ccccc12)(NC(=O)OC1C2CC3CC(C2)CC1C3)C(=O)NCCC(=O)N[C@@H](Cc1ccccc1)C(=O)OCc1ccccc1 (stereo partly drawn) [Example 30, L-Phenylalanine,N-[N-[α-methyl-N-[(tricyclo[3.3.1.1^3,7]dec-2-yloxy)carbonyl]-d-tryotoohyl]-β-alanyl]-phenylmethyl ester]"
